US20110098296A1, “Thiazole And Oxazole Kinase Inhibitors” (priority 2007, published 2011)
Where a name gives a salt, the structure may show the parent alone.

Experiments:
Colo205 tumor cells = test: Method C: Cell Growth Inhibition Assay (CellTiter-Glo), Colo205; format: cell-based; settings: Homo sapiens, COLO 205, 72 h, 3 days, 4-parameter fit
Procedure: (§1) Human breast tumor cells (BT474) were cultured in RPMI (Mediatech 50-011-PB), containing 10% FBS (JRH Biosciences 12176) and 1% penicillin-streptomycin (Invitrogen 15140). Human head and neck tumor cells (HN5) were cultured in high glucose DMEM (Mediatech 50-013-PB) containing 10% FBS and 1% penicillin-streptomycin. Human colon tumor cells (Colo205) were cultured in RPMI (Mediatech 50-020-PB) containing 10% FBS and 1% penicillin-streptomycin. Human melanoma cancer cells (SK-MEL-28) were cultured in EMEM with nonessential amino acids (Mediatech 50-011-PB) containing 10% FBS, 1% sodium pyruvate (JT Baker 3354-04), and 1% penicillin-streptomycin. Human melanoma cancer cells (A375P F11s) were cultured in RPMI (Mediatech 50-020-PB) containing 10% FBS, 1% sodium pyruvate, and 1% penicillin-streptomycin. Human colon cancer cells (HT-29) were cultured in high glucose DMEM (Mediatech 50-013-PB) containing 10% FBS and 1% penicillin-streptomycin. Human melanoma cancer cells (SK-MEL-3) were cultured in McCoy's 5A (50-025-PB) containing 15% FBS, and 1% penicillin-streptomycin. All cell lines were maintained at 37° C. in a humidified 5% CO2, 95% air incubator. Cells were harvested using trypsin/EDTA (Invitrogen 25200), counted using an haemocytometer, and plated. For 96-well assays (using white full-area NUNC plates cat. #136102), cells were plated in 105 μL at the following densities (cells/well): HN5, 500; Colo205, 500; SK-MEL-28, 500; A375P-F11s, 500; HT-29, 500; SK-MEL-3, 500; and BT474, 3000. For 384-well assays (white full-area NUNC plates, cat. #781080), cells were plated in 48 μL at the following densities (cells/well): HN5, 500; Colo205, 500; SK-MEL-28, 500; A375P-F11s, 500; HT29, 500; SK-MEL-3, 500; and BT474, 2000.
(§2) The next day, compounds were diluted as follow: For 96-well assays, 13.5 μL of compound in DMSO were diluted using nine (9) serial 1:3 dilutions of 4.5 μL in 9 μL of DMSO. Medium (270 μl/well of RPMI with 10% FBS and 1% penicillin-streptomycin) was added to the plates. Aliquots (7 μl) were added to cells in the final assay giving a final DMSO concentration of 0.2%. For 384-well assays, 15 μL of compound in DMSO were diluted using nine (9) serial 1:3 dilutions of 5 μL in 10 μL of DMSO, followed by a further dilution of 5 μL of compound with 95 μL of medium, of which 2 μL were added to cells in the final assay giving a final DMSO concentration of 0.2%. Cells were incubated at 37° C., 5% CO2 for 3 days.
(§3) Total ATP was measured (as a surrogate estimate of cell number) using CellTiter-Glo® reagent (Promega G7571). Briefly, plates were removed from the incubator and allowed to equilibrate to room temperature for 30 minutes. CellTiter-Glo® (25 μL or 55 μL for 384-well or 96-well assays, respectively) reagent was added to each well and plates were shaken on an orbital plate shaker for 2 mins. Plates were incubated without shaking for a further 30 mins and read on an LJL Analyst GT reader in luminometer mode with an integration time of 0.5 seconds per well. Percent inhibition of cell growth was calculated relative to DMSO vehicle-treated control wells. Concentration of compound required to give 50% inhibition of vehicle-treated control cell growth (IC50) was interpolated using a 4-parameter fit for determining IC50 using the following equation: Y=A+((B−A)/(1+((C/X)̂D))) where X=IC50.

ErbB2 = target: T1, ErbB2 (Homo sapiens, UniProt P04626); test: ErbB-2 substrate phosphorylation assay (HTRF); format: biochemical; settings: Method (A): Enzyme Mix incubated with compound at 20° C. for 1 hr, reaction started by adding Substrate Mix
T1 construct: made in house; host or cells: baculovirus expression system
T1 sequence (P04626 23-1255): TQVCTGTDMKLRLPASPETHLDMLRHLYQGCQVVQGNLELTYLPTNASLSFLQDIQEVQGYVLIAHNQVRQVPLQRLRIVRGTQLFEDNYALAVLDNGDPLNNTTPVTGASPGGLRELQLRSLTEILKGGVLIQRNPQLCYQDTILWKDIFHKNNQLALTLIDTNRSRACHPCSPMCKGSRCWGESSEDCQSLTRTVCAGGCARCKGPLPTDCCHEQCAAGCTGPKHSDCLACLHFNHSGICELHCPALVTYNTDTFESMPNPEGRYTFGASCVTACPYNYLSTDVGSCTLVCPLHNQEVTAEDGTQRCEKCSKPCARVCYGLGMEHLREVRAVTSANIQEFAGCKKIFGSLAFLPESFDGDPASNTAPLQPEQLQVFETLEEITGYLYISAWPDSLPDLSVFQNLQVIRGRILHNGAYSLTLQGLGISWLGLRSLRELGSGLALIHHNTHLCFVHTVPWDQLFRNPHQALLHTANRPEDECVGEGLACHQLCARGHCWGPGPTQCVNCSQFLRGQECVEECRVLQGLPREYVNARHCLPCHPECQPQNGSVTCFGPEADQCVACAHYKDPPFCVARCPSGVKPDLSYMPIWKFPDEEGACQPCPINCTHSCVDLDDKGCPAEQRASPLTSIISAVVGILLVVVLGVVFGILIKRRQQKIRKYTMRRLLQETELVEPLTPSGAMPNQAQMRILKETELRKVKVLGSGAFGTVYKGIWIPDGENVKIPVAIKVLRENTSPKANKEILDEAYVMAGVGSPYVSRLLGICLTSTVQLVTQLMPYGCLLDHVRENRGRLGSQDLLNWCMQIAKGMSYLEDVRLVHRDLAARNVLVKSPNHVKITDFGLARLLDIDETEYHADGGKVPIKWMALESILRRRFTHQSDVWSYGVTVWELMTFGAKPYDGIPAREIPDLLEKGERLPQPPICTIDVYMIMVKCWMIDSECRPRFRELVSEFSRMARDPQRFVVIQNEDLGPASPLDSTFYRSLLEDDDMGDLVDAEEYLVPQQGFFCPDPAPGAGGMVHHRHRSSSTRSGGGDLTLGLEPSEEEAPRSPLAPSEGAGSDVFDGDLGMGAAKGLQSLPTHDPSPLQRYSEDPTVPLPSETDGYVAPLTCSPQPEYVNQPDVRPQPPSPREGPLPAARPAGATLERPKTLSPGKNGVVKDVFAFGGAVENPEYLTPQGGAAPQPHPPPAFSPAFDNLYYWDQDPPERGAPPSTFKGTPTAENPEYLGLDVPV
Procedure: (§4) Compounds of the present invention were tested for EGFR and ErbB-2 protein tyrosine kinase inhibitory activity in substrate phosphorylation assays using enzymes purified from a baculovirus expression system. Reagent production was conducted essentially as described in Brignola, P. S., et al., (2002) J. Biol. Chem. 277(2):1576-1585.
(§5) The method measures the ability of the isolated enzyme to catalyse the transfer of the gamma-phosphate from ATP onto the tyrosine residue of a biotinylated synthetic peptide referenced “Peptide C” in Brignola, P. S., et al., (2002) J. Biol. Chem. 277(2):1576-1585. The extent of tyrosine phosphorylation was measured using an anti-phosphotyrosine antibody, and quantified by homogenous time-resolved fluorescence (HTRF).
(§6) Reactions were performed in black 384-well polystyrene flat-bottom plates in a final volume of 20 μl. Assays were performed by adding 10 μl of each of the following solutions, Substrate Mix and Enzyme Mix: The Substrate Mix contained 100 mM 3-[N-morpholino]propanesulfonic acid (MOPS) (pH 7.5), 2 mM MnCl2, 20 μM ATP, 0.01% Tween-20, 0.1 mg/mL (BSA), 0.8 uM peptide substrate, and 1 mM dithiothreitol. The Enzyme Mix contained 100 mM MOPS (pH 7.5); 0.01% Tween-20; 0.1 mg/mL BSA, and either 0.8 nM EGFR, 10 nM ErbB2, or 1 nM ErbB4
(§7) During the course of these studies, two separate methods have been used to measure the potency of compounds. In Method A (indicated as “(A)” in the tables below), the Enzyme Mix was added to the compound plates and the plates were incubated at 20° C. for 1 hr. The reactions were then started by adding the Substrate Mix. In Method B (indicated as “(B)” in the tables below), the Substrate Mix was added to the compound plates first, then the reaction was started by adding the Enzyme Mix.
(§8) After initiating the reaction with either method describe above, the reactions were allowed to proceed for 90 minutes at 20° C. The reactions were then terminated by the addition of 20 μL 100 mM EDTA to each well. 40 μL/well of HTRF detection mix were added to the assay plates. The final concentrations of the detection reagents were: 100 mM HEPES (pH7.5), 0.1 mg/mL BSA, 15 nM streptavidin-labeled allophycocyanin (PerkinElmer), and 1 nM europium-labeled anti-phosphotyrosine antibody (PerkinElmer). Assay plates were left unsealed and were counted in a Wallac Multilabel Counter 1420 (PerkinElmer).
(§9) Compounds under analysis were dissolved in dimethylsulfoxide (DMSO) to 1.0 mM and serially diluted 1 to 3 with DMSO through twelve dilutions. 1 μL of each concentration was transferred to the corresponding well of an assay plate. This creates a final compound concentration range from 0.00027 to 47.6 μM.
(§10) The data for dose responses were plotted as % Inhibition calculated with the data reduction formula 100*(1−(U1−C2)/(C1−C2)) versus concentration of compound where U1 is the unknown value, C1 is the average control value obtained for 4.76% DMSO, and C2 is the average control value obtained for 0.035 M EDTA. Data were fitted with a curve described by:
(§11) where Vmax is the upper asymptote, Y2 is the Y intercept, and K is the IC50. The results for each compound were recorded as pIC50s, calculated as follows: […]

SK-MEL-28 tumor cells = test: Method C: Cell Growth Inhibition Assay (CellTiter-Glo), SK-MEL-28; format: cell-based; settings: Homo sapiens, SK-MEL-28, 72 h, 3 days, 4-parameter fit
Procedure: as §1, §2, §3

BT474 tumor cells = test: Method C: Cell Growth Inhibition Assay (CellTiter-Glo), BT474; format: cell-based; settings: Homo sapiens, BT-474, 72 h, 3 days, 4-parameter fit
Procedure: as §1, §2, §3

EGFR = target: T2, EGFR (Homo sapiens, UniProt P00533); test: EGFR substrate phosphorylation assay (HTRF); format: biochemical; settings: Method (A): Enzyme Mix incubated with compound at 20° C. for 1 hr, reaction started by adding Substrate Mix
T2 construct: made in house; host or cells: baculovirus expression system
T2 sequence (P00533 25-1210): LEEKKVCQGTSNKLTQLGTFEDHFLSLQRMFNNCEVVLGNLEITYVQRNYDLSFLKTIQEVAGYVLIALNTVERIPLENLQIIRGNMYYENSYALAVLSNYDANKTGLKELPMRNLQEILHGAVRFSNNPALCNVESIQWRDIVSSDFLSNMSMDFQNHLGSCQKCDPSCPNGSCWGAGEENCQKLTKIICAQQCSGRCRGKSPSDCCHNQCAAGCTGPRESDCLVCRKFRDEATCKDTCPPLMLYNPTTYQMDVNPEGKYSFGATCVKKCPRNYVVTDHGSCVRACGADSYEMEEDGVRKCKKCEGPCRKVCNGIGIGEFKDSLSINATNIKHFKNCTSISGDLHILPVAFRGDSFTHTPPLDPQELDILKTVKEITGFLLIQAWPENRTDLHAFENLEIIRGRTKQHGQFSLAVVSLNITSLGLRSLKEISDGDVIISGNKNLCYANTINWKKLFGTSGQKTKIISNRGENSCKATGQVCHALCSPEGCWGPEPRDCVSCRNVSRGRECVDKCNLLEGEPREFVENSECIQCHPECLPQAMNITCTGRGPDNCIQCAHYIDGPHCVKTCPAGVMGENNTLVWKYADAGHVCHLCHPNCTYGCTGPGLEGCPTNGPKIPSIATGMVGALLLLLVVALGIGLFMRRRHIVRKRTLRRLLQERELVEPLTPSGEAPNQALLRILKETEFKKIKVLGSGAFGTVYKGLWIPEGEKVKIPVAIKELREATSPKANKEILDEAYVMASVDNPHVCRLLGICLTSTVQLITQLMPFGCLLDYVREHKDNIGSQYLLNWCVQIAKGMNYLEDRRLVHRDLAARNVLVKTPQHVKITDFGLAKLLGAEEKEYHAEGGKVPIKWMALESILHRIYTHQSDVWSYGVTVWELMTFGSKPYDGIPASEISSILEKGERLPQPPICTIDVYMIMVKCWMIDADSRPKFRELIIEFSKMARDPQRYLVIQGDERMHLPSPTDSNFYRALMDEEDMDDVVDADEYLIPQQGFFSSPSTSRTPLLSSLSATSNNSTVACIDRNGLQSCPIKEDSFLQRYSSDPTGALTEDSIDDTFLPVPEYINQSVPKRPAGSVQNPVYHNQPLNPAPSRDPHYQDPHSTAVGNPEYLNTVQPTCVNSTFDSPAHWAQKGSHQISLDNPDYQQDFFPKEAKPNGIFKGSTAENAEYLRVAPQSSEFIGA
Procedure: as §4, §5, §6, §7, §8, §9, §10, §11

Cc1nc(-c2cccc(NC(=O)c3c(F)cccc3F)c2)c(-c2ccnc(Nc3ccc(OCCN4CCCC4)c(Cl)c3)n2)s1 [Example 110, N-[3-(5-{2-[(3-Chloro-4-{[2-(1-pyrrolidinyl)ethyl]oxy}phenyl)amino]-4-pyrimidinyl}-2-methyl-1,3-thiazol-4-yl)phenyl]-2,6-difluorobenzamide]
IC50 (Colo205 tumor cells): > 1000 nM
IC50 (ErbB2): < 100 nM
IC50 (SK-MEL-28 tumor cells): > 1000 nM
IC50 (BT474 tumor cells): 100 to 1000 nM
IC50 (EGFR): < 100 nM

CCc1nc(-c2cccc(NC(=O)c3c(F)cccc3F)c2)c(-c2ccnc(Nc3ccc(OCCN4CCCC4)c(F)c3)n2)s1 [Example 117, N-[3-(2-Ethyl-5-{2-[(3-fluoro-4-{[2-(1-pyrrolidinyl)ethyl]oxy}phenyl)amino]-4-pyrimidinyl}-1,3-thiazol-4-yl)phenyl]-2,6-difluorobenzamide]
IC50 (Colo205 tumor cells): > 1000 nM
IC50 (ErbB2): < 100 nM
IC50 (SK-MEL-28 tumor cells): > 1000 nM
IC50 (BT474 tumor cells): 100 to 1000 nM
IC50 (EGFR): < 100 nM

CC(C)(C)S(=O)(=O)Cc1nc(-c2cccc(NC(=O)c3c(F)cccc3F)c2)c(-c2ccnc(Nc3ccc(OCCN4CCCC4)c(Cl)c3)n2)s1 [Example 119]
IC50 (Colo205 tumor cells): 100 to 1000 nM
IC50 (ErbB2): < 100 nM
IC50 (SK-MEL-28 tumor cells): > 1000 nM
IC50 (BT474 tumor cells): 100 to 1000 nM
IC50 (EGFR): < 100 nM

CN1CCc2ccc(Nc3nccc(-c4sc(CS(=O)(=O)C(C)(C)C)nc4-c4cccc(NC(=O)c5c(F)cccc5F)c4)n3)cc2C1 [Example 120, N-[3-(2-{[(1,1-Dimethylethyl)sulfonyl]methyl}-5-{2-[(2-methyl-1,2,3,4-tetrahydro-7-isoquinolinyl)amino]-4-pyrimidinyl}-1,3-thiazol-4-yl)phenyl]-2,6-difluorobenzamide]
IC50 (Colo205 tumor cells): 100 to 1000 nM
IC50 (ErbB2): < 100 nM
IC50 (SK-MEL-28 tumor cells): > 1000 nM
IC50 (BT474 tumor cells): < 100 nM
IC50 (EGFR): < 100 nM

CC(C)c1nc(-c2cccc(NC(=O)c3c(F)cccc3F)c2)c(-c2ccnc(Nc3cccc(OCCN(C)C)c3)n2)s1 [Example 122]
IC50 (Colo205 tumor cells): > 1000 nM
IC50 (ErbB2): < 100 nM
IC50 (SK-MEL-28 tumor cells): > 1000 nM
IC50 (BT474 tumor cells): 100 to 1000 nM
IC50 (EGFR): < 100 nM

CC(C)(C)c1nc(-c2cccc(NC(=O)c3c(F)cccc3F)c2)c(-c2ccnc(Nc3cccc(CN4CCCC4)c3)n2)s1 [Example 123, N-{3-[2-(1,1-Dimethylethyl)-5-(2-{[3-(1-pyrrolidinylmethyl)phenyl]amino}-4-pyrimidinyl)-1,3-thiazol-4-yl]phenyl}-2,6-difluorobenzamide]
IC50 (Colo205 tumor cells): > 1000 nM
IC50 (ErbB2): < 100 nM
IC50 (SK-MEL-28 tumor cells): > 1000 nM
IC50 (BT474 tumor cells): 100 to 1000 nM
IC50 (EGFR): < 100 nM

CN1CCC(c2nc(-c3cccc(NC(=O)c4c(F)cccc4F)c3)c(-c3ccnc(Nc4ccc5c(c4)CN(C)CC5)n3)s2)CC1 [Example 125, 2,6-Difluoro-N-[3-(2-(1-methyl-4-piperidinyl)-5-{2-[(2-methyl-1,2,3,4-tetrahydro-7-isoquinolinyl)amino]-4-pyrimidinyl}-1,3-thiazol-4-yl)phenyl]benzamide]
IC50 (Colo205 tumor cells): 100 to 1000 nM
IC50 (ErbB2): < 100 nM
IC50 (SK-MEL-28 tumor cells): 100 to 1000 nM
IC50 (BT474 tumor cells): 100 to 1000 nM
IC50 (EGFR): < 100 nM

Cc1nc(-c2cccc(NC(=O)Nc3ccc(Cl)c(C(F)(F)F)c3)c2)c(-c2ccnc(Nc3ccc4c(c3)CN(C)CC4)n2)s1 [Example 129]
IC50 (Colo205 tumor cells): 100 to 1000 nM
IC50 (ErbB2): < 100 nM
IC50 (SK-MEL-28 tumor cells): > 1000 nM
IC50 (BT474 tumor cells): > 1000 nM
IC50 (EGFR): 100 to 1000 nM

COc1ccccc1C(=O)Nc1cccc(-c2nc(C)sc2-c2ccnc(Nc3ccc4c(c3)CN(C)CC4)n2)c1 [Example 130, N-[3-(2-Methyl-5-{2-[(2-methyl-1,2,3,4-tetrahydro-7-isoquinolinyl)amino]-4-pyrimidinyl}-1,3-thiazol-4-yl)phenyl]-2-(methyloxy)benzamide]
IC50 (Colo205 tumor cells): > 1000 nM
IC50 (ErbB2): < 100 nM
IC50 (SK-MEL-28 tumor cells): > 1000 nM
IC50 (BT474 tumor cells): > 1000 nM
IC50 (EGFR): < 100 nM

COc1cccc(C(=O)Nc2cccc(-c3nc(C)sc3-c3ccnc(Nc4ccc5c(c4)CN(C)CC5)n3)c2)c1 [Example 132, N-[3-(2-Methyl-5-{2-[(2-methyl-1,2,3,4-tetrahydro-7-isoquinolinyl)amino]-4-pyrimidinyl}-1,3-thiazol-4-yl)phenyl]-3-(methyloxy)benzamide trifluoroacetate]
IC50 (Colo205 tumor cells): > 1000 nM
IC50 (ErbB2): < 100 nM
IC50 (SK-MEL-28 tumor cells): > 1000 nM
IC50 (BT474 tumor cells): 100 to 1000 nM
IC50 (EGFR): < 100 nM

Cc1nc(-c2cccc(NC(=O)Nc3ccc(Cl)c(C(F)(F)F)c3)c2)c(-c2ccnc(Nc3ccc(OCCN(C)C)c(Cl)c3)n2)s1 [Example 133, N-[3-(5-{2-[(3-Chloro-4-{[2-(dimethylamino)ethyl]oxy}Phenyl)amino]-4-pyrimidinyl}-2-methyl-1,3-thiazol-4-yl)phenyl]-N′-[4-chloro-3-(trifluoromethyl)phenyl]urea]
IC50 (Colo205 tumor cells): 100 to 1000 nM
IC50 (ErbB2): 100 to 1000 nM
IC50 (SK-MEL-28 tumor cells): 100 to 1000 nM
IC50 (BT474 tumor cells): > 1000 nM
IC50 (EGFR): 100 to 1000 nM
